# Measured values reported in patent US8215314B2, “Photochemical tissue bonding” (The General Hospital Corporation, priority 2000, dated 2012).
# Test system: corneal incision, rabbit eyes ex vivo
# Assay: IOP required to produce fluid leakage from corneal incision (IOPL) after PTB, ex vivo
# Conditions: for mean IOPL: RB 1.5 mM, 514 nm
# Method: PTB can be used to seal or repair a tissue, e.g., a wound, e.g., a corneal wound. This example illustrates the experimental procedure designed to test the efficacy of PTB, as described herein, using mammalian corneas ex vivo. Experiments were performed according to the following procedure.
# Rabbit eyes were received on ice (Pel-Freez Biologicals) approximately 17-24 hours after sacrifice and enucleation. The eyes were kept on ice and used the same day. The eye to be studied was mounted on a plastic-covered polystyrene block and fixed in position by needles inserted through the extraocular muscles into the polystyrene. The eye was then placed under a dissecting microscope (Reichert Scientific Instruments, Ill.) allowing visualization of the treated area during the entire procedure. A 27 G needle was inserted parallel to the iris, 2 mm anterior to the limbus into clear cornea, and positioned above the lens in the anterior chamber. The needle was connected to both a blood pressure transducer (Harvard Apparatus, Mass.) and a mini-infuser 400 (Bard Harvard) via a T coupler. The pressure transducer consists of a transducer element that is hard wired to an amplifier box and uses a semi-disposable dome with an integral silicone rubber membrane. Pressure inside the dome is transmitted through the membrane to a plastic button whose motion is translated to a voltage. The voltage generated by the transducer amplifier combination is proportional to the […] intraocular pressure (IOP). Signals from the transducer amplifier were recorded using a Macintosh G3 Power book equipped with a PCMICA (DAQCARD—1200) data acquisition card (National Instruments, Tex.). Data acquisition was controlled using programs written using the LabView 4 software package (National Instruments, Tex.). The voltage from the transducer and amplifier was converted to pressure by calibrating with a standing manometer.
# Experiments on individual eyes were initiated by increasing the IOP to 30-40 mm Hg, using water infusion at a rate of 1 mL per minute. An incision was made in the cornea, 1 mm from the limbus and parallel to the iris, using a 3.5 mm angled keratome (Becton Dickinson Co.). For each eye the IOP required to produce fluid leakage from the incision (IOPL) was recorded pre- and post-PTB treatment. A photosensitizer, dissolved in phosphate buffer solution (PBS, pH 7.2, Gibco BRL) was applied to the walls of the incision using a Gastight, 50 μl syringe (Hamilton Co.) with a 27 G needle.
# Irradiations employed a continuous wave (CW) argon-ion laser (Innova 100; Coherent, Inc., Palo Alto, Calif.) at 488 nm (for Fl and R-5-P), 514.5 nm (for RB) or 351 nm (for NHPT). An argon-ion-pumped dye laser (CR-599; Coherent) with 4-dicyanomethylene-2-methyl-6-(p-dimethylaminostyryl)-4H-pyran dye (Exciton, Inc., Dayton, Ohio) was used for irradiation at 661 nm (for MB). Laser light was coupled into a 1 mm diameter quartz fiber and a 1 cm diameter spot on the tissue was created by using a combination of 1 and 2 inch focal length, S1-UV grade fused silica, biconvex lenses (Esco Products), mounted in a SM1 series cage assembly (Thorlabs, N.J.). The 1 cm diameter circular spot was sufficient to cover the entire incision and the optics were adjusted so that the laser light was incident on the cornea at an angle approximately 45° to the plane of the incision. Dose response curves were obtained by varying the duration of the irradiation at a constant irradiance. In separate experiments the effects of laser irradiance were investigated by comparison of the same delivered dose using different irradiances. The doses used ranged from 124 to 1524 J/cm^2 and the irradiances used were 0.64, 1.27, 2.55 and 3.86 W/cm^2. The laser exposure time varied from 33 seconds for the lowest dose using the highest irradiance to 26 minutes, 27 seconds for the highest dose using the lowest irradiance. The IOPL was recorded immediately following treatment. […]
smiles,measurement,setting,value
O=C([O-])c1c(Cl)c(Cl)c(Cl)c(Cl)c1-c1c2cc(I)c(=O)c(I)c-2oc2c(I)c([O-])c(I)cc12.[Na+].[Na+] [Rose Bengal],mean IOPL post-treatment,1.5 mM RB and 514 nm laser light,greater than 300±48 mm Hg
same,mean IOPL,1270 J/cm^2 at 1.27 W/cm^2,274 mm Hg
same,mean IOPL,1270 J/cm^2 at 2.55 W/cm^2,150 mm Hg
same,mean IOPL,1270 J/cm^2 at 3.86 W/cm^2,130 mm Hg
same,IOPL,"RB, all doses delivered at 1.27 and 2.55 W/cm^2",greater than 100 mm Hg
same,rise in IOPL,"RB, doses below 508 J/cm^2 at any irradiance tested",No significant rise
same,increase between pre- and post-treatment IOPL,"photosensitizer alone, no laser irradiation",no significant increase
